Measurements taken from patent publication US10570099B2, “Salts of an epidermal growth factor receptor kinase inhibitor” (Celgene CAR LLC, priority 2012, dated 2020).

Key:
[1] = Slurry in pH 6.2 aqueous medium (conversion to unknown solid form); format: physicochemical; conditions: slurry in aqueous pH 6.2 medium, ambient, XRPD
Description: In attempts to characterize this form, as well as establish the rate of conversion to this form while slurrying the material, the following experiments were carried out. Initially, approximately 100 mg of the hydrobromide (1 equiv.) material was slurried in a pH 6.2 aqueous solution at ambient and XRPD analysis was carried out at time points 5 min., 1 hr, 2 hrs, 4 hrs and 8 hrs. Further analysis was then also carried out on the converted material.

[2] = Dog PK Study 1 (cross-over, fasted); format: in vivo, beagle dogs; conditions: fasted dogs, oral, 24.5-28.5 mg/kg QD
Description: Compound 1 free base and compound 2, as the Form I monohydrobromide (HBr) salt, were evaluated in a cross-over dog PK study. Compound 1 free base capsule consisted of compound 1 free base in Vitamin E TPGS and PEG 400 filled into a capsule. The Form I hydrobromide salt capsule consisted of Form I HBr alone filled into a capsule.
Compound 1 free base capsule and Form I HBr capsule were dosed orally at 28.5 and 24.5 mg/kg (as active) QD, respectively, to three fasted male non-naïve beagle dogs (body weight range: 10.1-10.8 kg) with a 5-day washout period. Approximately 5 mL of tap water was orally administered to encourage swallowing and ensure delivery of capsules into the stomach. Plasma samples were collected at pre-dose and 0.5, 1, 2, 4, 6, 8, 12 and 24 hours post dose. The plasma concentrations of compound 1 were determined by a liquid chromatography-tandem mass spectrometry (LC/MS/MS) method.

[3] = Dog PK Study 2 (gastric pH adjustment, food effect); format: in vivo, beagle dogs; conditions: dogs, oral, 30 mg/kg QD, both low and high gastric pH conditions
Description: Compound 1 free base and compound 2, as the Form I monohydrobromide (HBr) salt, were evaluated in a cross-over dog PK study in which male dogs were pre-treated with either pentagastrin (to decrease gastric pH) or famotidine (to increase gastric pH) prior to oral dosing to control gastric pH. In addition, the effect of food on the systemic exposure to compound 1 was also evaluated in dogs receiving Form I HBr with pentagastrin pre-treatment. Compound 1 free base capsule consisted of compound 1 free base in Vitamin E TPGS and PEG 400 filled into a capsule. The Form I hydrobromide salt capsule consisted of Form I HBr alone filled into a capsule.
There was a minimum 6-day washout between dosing. On the day of dosing under fed condition, dogs were given 60 gram of a high fat diet (Harlan Teklad 2027C) and allowed to consume all of the food within 15-20 minutes. The animals were given a 10-minute rest period and then the capsule doses were administered. Plasma samples were collected at pre-dose and 0.5, 1, 2, 4, 6, 8, 12 and 24 hours post dose.

[4] = Administration to healthy volunteers (single dose PK study); format: in vivo, healthy male subjects; conditions: 50 mg dose, Regimen B
Source text: The primary objective of the study is to compare the compound 1 pharmacokinetic (PK) profiles of single doses of Form I monohydrobromide formulations with that of the compound 1 free base in healthy adult males.
This is a single centre non-randomised, open-label, single dose study in healthy male subjects. Subjects will be screened for eligibility to participate in the study up to 28 days before dosing. The subjects will be admitted to the clinical unit at approximately 09:00 in the morning on the day prior to dosing (Day-1) and will remain on site until 24 h after each dose. Each subject will attend a follow-up visit 4 to 6 days after the final dose.
One group of 12 subjects will be dosed in an effort to obtain the data described above. Each subject will receive the following formulations in a crossover investigation. Dosing will be separated by at least 7 days. • Regimen A: 150 mg compound 1 (free base) capsule • Regimen B: 50 mg as active compound 2 (Form I HBr) tablet formulation • Regimen C: ≤150 mg as active compound 2 (Form I HBr) tablet formulation
All formulations will be dosed in the morning, following an overnight fast. Subjects will be allowed water up to 2 h before the scheduled dosing time and will be provided with 240 mL of water at 2 h post-dose. […]
Plasma concentration data will be tabulated and plotted for each subject for whom concentrations are quantifiable.

## Br.C=CC(=O)Nc1cccc(Nc2nc(Nc3ccc(N4CCN(C(C)=O)CC4)cc3OC)ncc2C(F)(F)F)c1 [Form I hydrobromide salt]
[1]
  time of conversion to the unknown solid form: 2 to 4 h
[2]
  compound 1 exposure (AUC and Cmax) compared to the free base form: significantly higher
[3]
  compound 1 exposure compared to the free base form: significantly higher
[4]
  patient-to-patient variability: less patient-to-patient variability
